The values below are quoted from earlier work in publication PMC10879502, “Linking ATP and allosteric sites to achieve superadditive binding with bivalent EGFR kinase inhibitors” (Communications Chemistry, 2024).

In series [1] the test system is Ba/F3 cells, L858R/T790M EGFR. The note with it: Ba/F3 ref 4 Wittlinger and Heppner; read-out: EGFR EC50, LR/TM; cited from earlier work.
For another series, the system named is Ba/F3 cells, L858R EGFR. The conditions noted are these: Ba/F3 ref 4 Wittlinger and Heppner; read-out: EGFR EC50, LR; cited from earlier work.
Series [2] deals with Ba/F3 cells, LR/TM/CS EGFR. The conditions noted are these: Ba/F3 ref 4 Wittlinger and Heppner; cited from earlier work.
For series [3], the system named is Ba/F3 cells, wildtype EGFR. The conditions noted are these: Ba/F3 ref 4 Wittlinger and Heppner; read-out: EGFR EC50, wt; cited from earlier work.

For the molecule `C=CC(=O)Nc1cc(Nc2nccc(-c3cn(C)c4ccccc34)n2)c(OC)cc1N(C)CCN(C)C` [AZD9291], the EC50 was 8 nM in series [1]; 3.3 ± 0.6 nM in the series on Ba/F3 cells, L858R EGFR; 1200 ± 130 nM in series [2]; 110 ± 40 nM in series [3].
